{
  "source": "patent US10251395B2",
  "about": "“Substituted furano-/thienocycloalkylamino-2-pyrimidine derivatives and use thereof for controlling undesired plant growth” (Bayer CropScience Aktiengesellschaft, priority 2015, dated 2019)",
  "key": {"[1]": {"test": "logP (HCOOH)", "type": "physicochemical", "details": "HCOOH (formic acid)", "source_text": "Table 2 (physicochemical characterization of selected synthesis examples)"}, "[2]": {"system": "Abutilon theophrasti", "test": "Pre-emergence herbicidal effect", "type": "in vivo", "details": "scored visually after 3 weeks", "procedure,_shortened": "(§1)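 Pre-em soil-surface spray; sandy loam, seeds covered with soil. WP/EC, aq. suspension/emulsion, 600–800 L/ha, +0.2% wetting agent. GH 3 wk; visual % activity vs untreated (100% = dead).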"}, "[3]": {"system": "Alopecurus myosuroides", "test": "Pre-emergence herbicidal effect", "type": "in vivo", "details": "scored visually after 3 weeks", "procedure,_shortened": "as §1"}, "[4]": {"system": "Amaranthus retroflexus", "test": "Pre-emergence herbicidal effect", "type": "in vivo", "details": "scored visually after 3 weeks", "procedure,_shortened": "as §1"}, "[5]": {"system": "Avena fatua", "test": "Pre-emergence herbicidal effect", "type": "in vivo", "details": "Dosage 320 g/ha, scored visually after 3 weeks", "procedure,_shortened": "as §1"}, "[6]": {"system": "Echinochloa crus-galli", "test": "Pre-emergence herbicidal effect", "type": "in vivo", "details": "scored visually after 3 weeks", "procedure,_shortened": "as §1"}, "[7]": {"system": "Ipomoea purpurea", "test": "Pre-emergence herbicidal effect", "type": "in vivo", "details": "scored visually after 3 weeks", "procedure,_shortened": "as §1"}, "[8]": {"system": "Lolium multiflorum", "test": "Pre-emergence herbicidal effect", "type": "in vivo", "details": "scored visually after 3 weeks", "procedure,_shortened": "as §1"}, "[9]": {"system": "Matricaria inodora", "test": "Pre-emergence herbicidal effect", "type": "in vivo", "details": "scored visually after 3 weeks", "procedure,_shortened": "as §1"}, "[10]": {"system": "Polygonum convolvulus", "test": "Pre-emergence herbicidal effect", "type": "in vivo", "details": "scored visually after 3 weeks", "procedure,_shortened": "as §1"}, "[11]": {"system": "Setaria viridis", "test": "Pre-emergence herbicidal effect", "type": "in vivo", "details": "scored visually after 3 weeks", "procedure,_shortened": "as §1"}, "[12]": {"system": "Stellaria media", "test": "Pre-emergence herbicidal effect", "type": "in vivo", "details": "scored visually after 3 weeks", "procedure,_shortened": "as §1"}, "[13]": {"system": "Veronica persica", "test": "Pre-emergence herbicidal effect", "type": "in vivo", "details": "Dosage 320 g/ha, scored visually after 3 weeks", "procedure,_shortened": "as §1"}, "[14]": {"system": "Viola tricolor", "test": "Pre-emergence herbicidal effect", "type": "in vivo", "details": "scored visually after 3 weeks", "procedure,_shortened": "as §1"}, "[15]": {"system": "Abutilon theophrasti", "test": "Post-emergence herbicidal effect", "type": "in vivo", "details": "assessed visually after about 3 weeks vs untreated controls", "procedure,_shortened": "(§2)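 Herbicidal effect was rated visually roughly 3 weeks after foliar treatment, as % versus untreated plants, with 0% meaning the same as controls and 100% meaning dead. Plants were treated at the one-leaf stage in the greenhouse with aqueous WP or EC sprays at 600–800 L/ha containing 0.2% wetter.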"}, "[16]": {"system": "Alopecurus myosuroides", "test": "Post-emergence herbicidal effect", "type": "in vivo", "details": "320 g/ha, assessed visually after about 3 weeks vs untreated controls", "procedure,_shortened": "as §2"}, "[17]": {"system": "Amaranthus retroflexus", "test": "Post-emergence herbicidal effect", "type": "in vivo", "details": "assessed visually after about 3 weeks vs untreated controls", "procedure,_shortened": "as §2"}, "[18]": {"system": "Avena fatua", "test": "Post-emergence herbicidal effect", "type": "in vivo", "details": "320 g/ha, assessed visually after about 3 weeks vs untreated controls", "procedure,_shortened": "as §2"}, "[19]": {"system": "Echinochloa crus-galli", "test": "Post-emergence herbicidal effect", "type": "in vivo", "details": "assessed visually after about 3 weeks vs untreated controls", "procedure,_shortened": "as §2"}, "[20]": {"system": "Ipomoea purpurea", "test": "Post-emergence herbicidal effect", "type": "in vivo", "details": "assessed visually after about 3 weeks vs untreated controls", "procedure,_shortened": "as §2"}, "[21]": {"system": "Lolium multiflorum", "test": "Post-emergence herbicidal effect", "type": "in vivo", "details": "320 g/ha, assessed visually after about 3 weeks vs untreated controls", "procedure,_shortened": "as §2"}, "[22]": {"system": "Matricaria inodora", "test": "Post-emergence herbicidal effect", "type": "in vivo", "details": "assessed visually after about 3 weeks vs untreated controls", "procedure,_shortened": "as §2"}, "[23]": {"system": "Polygonum convolvulus", "test": "Post-emergence herbicidal effect", "type": "in vivo", "details": "320 g/ha, assessed visually after about 3 weeks vs untreated controls", "procedure,_shortened": "as §2"}, "[24]": {"system": "Setaria viridis", "test": "Post-emergence herbicidal effect", "type": "in vivo", "details": "assessed visually after about 3 weeks vs untreated controls", "procedure,_shortened": "as §2"}, "[25]": {"system": "Stellaria media", "test": "Post-emergence herbicidal effect", "type": "in vivo", "details": "assessed visually after about 3 weeks vs untreated controls", "procedure,_shortened": "as §2"}, "[26]": {"system": "Veronica persica", "test": "Post-emergence herbicidal effect", "type": "in vivo", "details": "320 g/ha, assessed visually after about 3 weeks vs untreated controls", "procedure,_shortened": "as §2"}, "[27]": {"system": "Viola tricolor", "test": "Post-emergence herbicidal effect", "type": "in vivo", "details": "assessed visually after about 3 weeks vs untreated controls", "procedure,_shortened": "as §2"}},
  "data": [
    {"compound": "Cc1cc2c(o1)CC(C)(C)CC2Nc1ncc(C(F)(F)F)c(N)n1", "note": "(centres unmarked) [compound 21, 5-(Trifluoromethyl)-N2-(2,6,6-trimethyl-4,5,6,7-tetrahydro-1-benzofuran-4-yl)pyrimidine-2,4-diamine]", "values": [
      {"measurement": "chromatographic logP", "setting": "[1]", "value": 2.23},
      {"measurement": "melting point", "value": 182.6, "unit": "°C"}
    ]},
    {"compound": "CC(=O)c1cnc(NC2CCCc3sc(C)cc32)nc1N", "note": "(centres unmarked) [compound 283]", "values": [
      {"measurement": "ABUTH pre-emergence efficacy (herbicidal activity)", "setting": "[2]; Dosage 80 g/ha", "value": 90, "unit": "%"},
      {"measurement": "ABUTH pre-emergence efficacy (herbicidal activity)", "setting": "[2]; Dosage 320 g/ha", "value": 100, "unit": "%"},
      {"measurement": "ALOMY pre-emergence efficacy (herbicidal activity)", "setting": "[3]; Dosage 80 g/ha", "value": 80, "unit": "%"},
      {"measurement": "ALOMY pre-emergence efficacy (herbicidal activity)", "setting": "[3]; Dosage 320 g/ha", "value": 100, "unit": "%"},
      {"measurement": "AMARE pre-emergence efficacy (herbicidal activity)", "setting": "[4]; Dosage 80 g/ha", "value": 100, "unit": "%"},
      {"measurement": "AMARE pre-emergence efficacy (herbicidal activity)", "setting": "[4]; Dosage 320 g/ha", "value": 100, "unit": "%"},
      {"measurement": "AVEFA pre-emergence efficacy (herbicidal activity)", "setting": "[5]", "value": 80, "unit": "%"},
      {"measurement": "ECHCG pre-emergence efficacy (herbicidal activity)", "setting": "[6]; Dosage 80 g/ha", "value": 100, "unit": "%"},
      {"measurement": "ECHCG pre-emergence efficacy (herbicidal activity)", "setting": "[6]; Dosage 320 g/ha", "value": 100, "unit": "%"},
      {"measurement": "PHBPU pre-emergence efficacy (herbicidal activity)", "setting": "[7]; Dosage 80 g/ha", "value": 60, "unit": "%"},
      {"measurement": "PHBPU pre-emergence efficacy (herbicidal activity)", "setting": "[7]; Dosage 320 g/ha", "value": 100, "unit": "%"},
      {"measurement": "LOLMU pre-emergence efficacy (herbicidal activity)", "setting": "[8]; Dosage 80 g/ha", "value": 100, "unit": "%"},
      {"measurement": "LOLMU pre-emergence efficacy (herbicidal activity)", "setting": "[8]; Dosage 320 g/ha", "value": 100, "unit": "%"},
      {"measurement": "MATIN pre-emergence efficacy (herbicidal activity)", "setting": "[9]; Dosage 80 g/ha", "value": 100, "unit": "%"},
      {"measurement": "MATIN pre-emergence efficacy (herbicidal activity)", "setting": "[9]; Dosage 320 g/ha", "value": 100, "unit": "%"},
      {"measurement": "POLCO pre-emergence efficacy (herbicidal activity)", "setting": "[10]; Dosage 80 g/ha", "value": 100, "unit": "%"},
      {"measurement": "POLCO pre-emergence efficacy (herbicidal activity)", "setting": "[10]; Dosage 320 g/ha", "value": 100, "unit": "%"},
      {"measurement": "SETVI pre-emergence efficacy (herbicidal activity)", "setting": "[11]; Dosage 80 g/ha", "value": 100, "unit": "%"},
      {"measurement": "SETVI pre-emergence efficacy (herbicidal activity)", "setting": "[11]; Dosage 320 g/ha", "value": 100, "unit": "%"},
      {"measurement": "STEME pre-emergence efficacy (herbicidal activity)", "setting": "[12]; Dosage 80 g/ha", "value": 100, "unit": "%"},
      {"measurement": "STEME pre-emergence efficacy (herbicidal activity)", "setting": "[12]; Dosage 320 g/ha", "value": 100, "unit": "%"},
      {"measurement": "VERPE pre-emergence efficacy (herbicidal activity)", "setting": "[13]", "value": 100, "unit": "%"},
      {"measurement": "VIOTR pre-emergence efficacy (herbicidal activity)", "setting": "[14]; Dosage 80 g/ha", "value": 100, "unit": "%"},
      {"measurement": "VIOTR pre-emergence efficacy (herbicidal activity)", "setting": "[14]; Dosage 320 g/ha", "value": 100, "unit": "%"},
      {"measurement": "post-emergence efficacy ABUTH", "setting": "[15]; 80 g/ha", "value": 90, "unit": "%"},
      {"measurement": "post-emergence efficacy ABUTH", "setting": "[15]; 320 g/ha", "value": 90, "unit": "%"},
      {"measurement": "post-emergence efficacy ALOMY", "setting": "[16]", "value": 90, "unit": "%"},
      {"measurement": "post-emergence efficacy AMARE", "setting": "[17]; 80 g/ha", "value": 90, "unit": "%"},
      {"measurement": "post-emergence efficacy AMARE", "setting": "[17]; 320 g/ha", "value": 100, "unit": "%"},
      {"measurement": "post-emergence efficacy AVEFA", "setting": "[18]", "value": 80, "unit": "%"},
      {"measurement": "post-emergence efficacy ECHCG", "setting": "[19]; 80 g/ha", "value": 80, "unit": "%"},
      {"measurement": "post-emergence efficacy ECHCG", "setting": "[19]; 320 g/ha", "value": 100, "unit": "%"},
      {"measurement": "post-emergence efficacy PHBPU", "setting": "[20]; 80 g/ha", "value": 80, "unit": "%"},
      {"measurement": "post-emergence efficacy PHBPU", "setting": "[20]; 320 g/ha", "value": 90, "unit": "%"},
      {"measurement": "post-emergence efficacy LOLMU", "setting": "[21]", "value": 100, "unit": "%"},
      {"measurement": "post-emergence efficacy MATIN", "setting": "[22]; 80 g/ha", "value": 90, "unit": "%"},
      {"measurement": "post-emergence efficacy MATIN", "setting": "[22]; 320 g/ha", "value": 90, "unit": "%"},
      {"measurement": "post-emergence efficacy POLCO", "setting": "[23]", "value": 70, "unit": "%"},
      {"measurement": "post-emergence efficacy SETVI", "setting": "[24]; 80 g/ha", "value": 50, "unit": "%"},
      {"measurement": "post-emergence efficacy SETVI", "setting": "[24]; 320 g/ha", "value": 90, "unit": "%"},
      {"measurement": "post-emergence efficacy STEME", "setting": "[25]; 80 g/ha", "value": 100, "unit": "%"},
      {"measurement": "post-emergence efficacy STEME", "setting": "[25]; 320 g/ha", "value": 100, "unit": "%"},
      {"measurement": "post-emergence efficacy VERPE", "setting": "[26]", "value": 100, "unit": "%"},
      {"measurement": "post-emergence efficacy VIOTR", "setting": "[27]; 80 g/ha", "value": 90, "unit": "%"},
      {"measurement": "post-emergence efficacy VIOTR", "setting": "[27]; 320 g/ha", "value": 100, "unit": "%"}
    ]}
  ]
}
